Data published in patent publication US20220142995A1, “DUAL ATM AND DNA-PK INHIBITORS FOR USE IN ANTI-TUMOR THERAPY” (XRAD Therapeutics, Inc., priority 2019, published 2022).

What was measured:
[1] = test system: MCF7 cells; assay: Clonogenic survival assay in MCF7 cells with or without radiation; format: cell-based, human; details: for Fold 2 Gy / Fold 4 Gy: relative to DMSO
Experimental: Cell Culture. The MCF-7 human breast carcinoma cell line and HCT116 p53 wild-type and HCT116 p53−/− cell lines were obtained from ATCC. MCF7 and HCT116 cells were cultured in Dulbecco's modified Eagle's medium (DMEM (Gibco #11995-065). MDA-MB-231 human triple negative breast cancer cell line and FADU, human head and neck squamous cell carcinoma line, were obtained from Charles River Laboratories (Morrisville, N.C.). MDA-MB-231 cells were cultured in RPMI 1640 medium (Gibco, 11875-093). FADU cells were cultured in Minimum Essential Medium a (MEM a) (Gibco, 12571-063) supplemented with 1 mM Sodium Pyruvate (Gibco, 11360-070), 1×MEM Non-Essential Amino Acids (Gibco, 11140-050). All cell lines were supplemented with 10% fetal bovine serum (FBS) (Corning, 35-010-CV) and 1× Anti biotic-Anti mycotic (Gibco #15240-062) and were grown at […]. All cell lines were authenticated by short tandem repeat profiling and tested negative for mycoplasma.
Clonogenic survival assay. This assay was performed with compound 569. Cells were plated in 6-well plates at different densities: 250 cells for no IR control, 5000 cells for 2 Gy of IR and 10000 cells for 4 Gy of IR and cultured overnight. The next day, cells were preincubated with compound 569 at 100, 250, 500, or 1000 nM or DMSO for 30 min before being exposed to increasing doses of IR (0, 2, or 4 Gy). After IR, cells were continuously incubated with DMSO or compound 569 for 5 h before the culture medium was removed and cells were washed with PBS. Cells were cultured in complete medium in the absence of inhibitor for 9 days. Then cells were stained (PBS, 0.0037% v/v formaldehyde, 0,1% crystal violet) rinsed with water and dried.

[2] = test system: ATM and DNA-PK kinases; assay: Immunoblot of radiation-induced phosphorylation of ATM, DNA-PKcs and KAP1 in MCF7 cells; format: cell-based, human; details: MCF7 cells, 20, 100, 500, 1000 nM, 30 min pre-treatment, 10 Gy, harvested 1 h later
Experimental: Cell Culture. The MCF-7 human breast carcinoma cell line and HCT116 p53 wild-type and HCT116 p53−/− cell lines were obtained from ATCC. […]
Immunoblotting. […] One hour after IR, cells were lysed in RIPA buffer ([…], pH 8.0, 150 mM NaCl, 0.1% SDS, 0.5% sodium deoxycholate, 1% IGEPAL® CA-630 (Sigma, 18896) for 20 min at 4° C. in the presence of protease and phosphatase inhibitor cocktails (Roche, #04693159001 & #04906837001). Cell lysates were centrifuged at 13,200 g for 10 min at 4° C. and supernatants were analyzed for protein content using BCA assay (Pierce™ BCA Protein Assay Kit, cat #23227, ThermoFisher Waltham, Mass. 02451) and equal amounts of protein/lane were used for subsequent immunoblot analyses. Proteins were denatured by adding NuPAGE LSD Sample Buffer [4×] […]

## CC(C)NCCOc1ncc(-c2cc3c4c(cnc3cc2F)N(C)C(=O)C42CCC2)cc1NS(C)(=O)=O [Compound 569, N-(5-(7′-Fluoro-3′-methyl-2′-oxo-2′,3′-dihydrospiro[cyclobutane-1,1′-pyrrolo[2,3-c]quinolin]-8′-yl)-2-(2-(isopropylamino)ethoxy)pyridin-3-yl)methanesulfonamide]
[1]; 100 nM
  Fold 2 Gy: 7.5
  Fold 4 Gy: 21.8
[1]; 250 nM
  Fold 2 Gy: 10.8
  Fold 4 Gy: 54.0
[1]; 500 nM
  Fold 2 Gy: 14.7
  Fold 4 Gy: 91.5
[1]; 1000 nM
  Fold 2 Gy: 22.0
  Fold 4 Gy: 198
[1]; 5-h exposure, 100-1000 nM, IR 0, 2, 4 Gy
  radiosensitization: significant degree of radiosensitization
[1]; 5-h exposure, 100-1000 nM, no IR
  cellular toxicity in the absence of IR: without evidence of cellular toxicity
[2]
  inhibition of radiation-induced phosphorylation of DNA-PKcs Ser2056, ATM Ser1981 and KAP1 ser824: potent dose-dependent inhibition
